Laboratory results: patent publication US9161900B2, “Cosmetic composition for inhibiting hair loss and enhanced hair growth” (AMOREPACIFIC CORPORATION, priority 2011, dated 2015)

Tested on: LNCaP cells having the androgen receptor
Assay: Androgen receptor inhibition assay (LNCaP cell viability, WST-1)
Settings: Homo sapiens, 48 h, read-out: Cell viability (%)
Protocol: The human prostate cancer cell line LNCaP cells were acquired from the American Type Culture Collection (Manassas, Va., USA) and cultured for 24 hours in RPMI 1640 medium containing 10% fetal bovine serum (FBS) and 2 mM 1-glutamine in an incubator maintained at 5% CO2 and 37° C.
Cell viability of the cultured cells was measured using the WST-1 reagent.

## C[C@]12CCC(=O)C[C@@H]1CC[C@@H]1[C@@H]2CC[C@]2(C)[C@@H](O)CC[C@@H]12 [DHT, dihydrotestosterone]
  viability at 0.001 µM: 119%
